Results: patent publication US11104690B2, “Indazole derivatives useful as inhibitors of diacylglyceride O-acyltransferase 2” (Merck Sharp & Dohme Corp., priority 2016, dated 2021)

The compounds below were run against Human DGAT2 (Homo sapiens (Human), UniProt Q96PD7) (assay: DGAT2 Enzymatic Activity Assay (triolein formation, LC/MS/MS)). Details: hDGAT2 Sf-9 membrane prep; 25 μM diolein, 10 μM oleoyl-CoA; room temperature.
Format: biochemical
How it was run: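 Membranes from Sf-9 cells infected with untagged hDGAT2 baculovirus, 10 ng/μL, at room temperature in 100 mM Tris.Cl pH 7.0, 20 mM MgCl2, 5% ethanol with 25 μM diolein and 10 μM oleoyl-CoA. Triolein quantified by LC/MS/MS against spiked internal standard; IC50 from 4-parameter sigmoidal fit.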

Chain of Human DGAT2 (Q96PD7 whole entry): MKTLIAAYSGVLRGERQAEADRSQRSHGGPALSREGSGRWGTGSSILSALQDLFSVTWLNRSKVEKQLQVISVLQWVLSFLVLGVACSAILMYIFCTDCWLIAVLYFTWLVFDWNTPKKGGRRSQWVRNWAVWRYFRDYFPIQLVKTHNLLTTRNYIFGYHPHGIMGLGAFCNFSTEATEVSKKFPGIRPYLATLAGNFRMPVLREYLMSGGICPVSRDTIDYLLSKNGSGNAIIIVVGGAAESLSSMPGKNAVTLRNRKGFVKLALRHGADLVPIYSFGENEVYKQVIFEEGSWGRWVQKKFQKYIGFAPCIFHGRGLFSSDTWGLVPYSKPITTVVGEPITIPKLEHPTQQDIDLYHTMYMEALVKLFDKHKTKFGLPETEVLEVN

Row | SMILES | IC50 [µM]
1 | CSCC[C@@H](CO)NC(=O)c1ccc2c(-c3ccccc3Cl)nn(-c3ccc(F)cc3)c2c1 [Example 93, 3-(2-chlorophenyl)-1-(4-fluorophenyl)-N-[(1S)-1-(hydroxymethyl)-3-(methylsulfanyl)propyl]-1H-indazole-6-carboxamide] | 0.503
2 | CCCCC(NC(=O)c1ccc2c(-c3ccccc3Cl)nn(-c3ccc(F)cc3)c2c1)C(O)C(F)(F)F (stereo not drawn) [Example 73, 3-(2-chlorophenyl)-1-(4-fluorophenyl)-N-[1-(2,2,2-trifluoro-1-hydroxyethyl)pentyl]-1H-indazole-6-carboxamide] | 0.534
3 | CC1(NC(=O)c2ccc3c(-c4cc(C#N)ccc4F)nn(-c4ccc(F)cc4)c3c2)CCS(=O)(=O)C1 (single isomer, unassigned) [Example 151-A, 3-(5-cyano-2-fluorophenyl)-1-(4-fluorophenyl)-N-(3-methyl-1,1-dioxidotetrahydrothiophen-3-yl)-1H-indazole-6-carboxamide] | 0.0045
4 | O=C(NCc1ccc(C(F)(F)F)nc1)c1ccc2c(-c3ccccc3Cl)nn(-c3ccc(F)cc3)c2c1 [Example 18, 3-(2-chlorophenyl)-1-(4-fluorophenyl)-N-{[6-(trifluoromethyl)pyridin-3-yl]methyl}-1H-indazole-6-carboxamide] | 0.064
5 | CC1(NC(=O)c2ccc3c(-c4ccccc4Cl)nn(-c4cscn4)c3c2)CCS(=O)(=O)C1 (stereo not drawn) [Example 179, 3-(2-Chlorophenyl)-N-(3-methyl-1,1-dioxidotetrahydrothiophen-3-yl)-1-(thiazol-4-yl)-1H-indazole-6-carboxamide] | 0.285
6 | O=C(NCc1cnsn1)c1ccc2c(-c3ccccc3Cl)nn(-c3ccc(F)cc3)c2c1 [Example 40, 3-(2-chlorophenyl)-1-(4-fluorophenyl)-N-(1,2,5-thiadiazol-3-ylmethyl)-1H-indazole-6-carboxamide] | 0.445
7 | COc1cc(-c2nn(-c3ccc(F)cc3)c3cc(C(=O)NC4(C)CCS(=O)(=O)C4)ccc23)c(Cl)cn1 (single isomer, unassigned) [Example 141-A, 3-(5-chloro-2-methoxypyridin-4-yl)-1-(4-fluorophenyl)-N-(3-methyl-1,1-dioxidotetrahydrothiophen-3-yl)-1H-indazole-6-carboxamide] | 0.0048
8 | O=C(NC1CCS(=O)(=O)C1)c1ccc2c(-c3cccnc3)nn(-c3ccc(F)cc3)c2c1 (single isomer, unassigned) [Example 134-A, N-(1,1-dioxidotetrahydrothiophen-3-yl)-1-(4-fluorophenyl)-3-pyridin-3-yl-1H-indazole-6-carboxamide] | 0.212

Now from value to compound:

Row | IC50 [µM] | SMILES
9 | 0.198 | O=C(N[C@@H]1C[C@H](CO)[C@@H](O)[C@H]1O)c1ccc2c(-c3ccccc3Cl)nn(-c3ccc(F)cc3)c2c1 [Example 87, 3-(2-chlorophenyl)-N-[(1R,2S,3R,4R)-2,3-dihydroxy-4-(hydroxymethyl)cyclopentyl]-1-(4-fluorophenyl)-1H-indazole-6-carboxamide]
10 | 0.125 | COC(=O)C1(NC(=O)c2ccc3c(-c4ccccc4Cl)nn(-c4ccc(F)cc4)c3c2)CC[S+]([O-])C1 (racemic) [Example 89, methyl 3-({[3-(2-chlorophenyl)-1-(4-fluorophenyl)-1H-indazol-6-yl]carbonyl}amino)tetra-hydrothiophene-3-carboxylate 1-oxide]
11 | 0.578 | O=C(N[C@@H]1CCC[C@@H]1O)c1ccc2c(-c3ccccc3Cl)nn(-c3ccc(F)cc3)c2c1 [Example 115, 3-(2-chlorophenyl)-1-(4-fluorophenyl)-N-[(1R,2S)-2-hydroxycyclopentyl]-1H-indazole-6-carboxamide]
12 | 0.043 | O=C(N[C@H]1CCC[C@H]1O)c1ccc2c(-c3ccccc3Cl)nn(-c3ccc(F)cc3)c2c1 [Example 96, 3-(2-chlorophenyl)-1-(4-fluorophenyl)-N-[(1S,2R)-2-hydroxycyclopentyl]-1H-indazole-6-carboxamide]
